This passage reports IC50 results from ChEMBL document CHEMBL3045898, “Antioxidant phenolic compounds and flavonoids of Mitragyna rotundifolia (Roxb.) Kuntze in vitro” (Med Chem Res, 2010).

Converted amounts (≈) assume the structure as drawn.

As usually defined, the IC50 is the concentration needed to halve the response being measured.

Assay [1] has as its system Radical scavenging activity. Nature of the assay: Antioxidant activity assessed as inhibition of DPPH radical production after 30 min by spectrophotometric analysis. The class given is functional. For orientation: DPPH is a stable violet radical that fades when it is reduced.
Assay [2] is described as follows: Antioxidant activity assessed as inhibition of ABTS radical production after 10 min by spectrophotometric analysis. The class given is functional.

As for `COc1c(O)cc([C@H]2Oc3cc(O)cc(O)c3C[C@@H]2O)cc1O` [4'-O-METHYL-GALLOCATECHIN], the half-inhibitory concentration (IC50) in assay [1] came to 2.57 µg/mL (≈ 8.02 µM); in assay [2], 0.78 µg/mL (≈ 2.44 µM).
Regarding `Oc1cc(O)c2c(c1)O[C@H](c1ccc(O)c(O)c1)[C@H](O)C2` [(-)-EPICATECHIN], the figures for the concentration for half-maximal inhibition (IC50) in assay [1] and in assay [2] were 1.61 µg/mL (≈ 5.55 µM) and 1.83 µg/mL (≈ 6.3 µM), respectively.
Take `Cc1cc(C(C)(C)C)c(O)c(C(C)(C)C)c1` [BUTYLATED HYDROXYTOLUENE]: the IC50 in assay [1] was determined as 18.79 µg/mL (≈ 85.3 µM); in assay [2] it was 4.555 µg/mL (≈ 20.7 µM).
Take `O=C(O)/C=C/c1ccc(O)c(O)c1` [CAFFEIC ACID]: the IC50 was 1.8 µg/mL (≈ 9.99 µM) in assay [1] and 1.54 µg/mL (≈ 8.55 µM) in assay [2].
Consider `Oc1cc(O)c2c(c1)O[C@H](c1ccc(O)c(O)c1)[C@@H](O)C2` [CIANIDANOL], for which the IC50 in assay [1] came to 1.4 µg/mL (≈ 4.82 µM); in assay [2] it was 0.56 µg/mL (≈ 1.93 µM).
On to `O=c1c(O)c(-c2ccc(O)cc2)oc2cc(O)cc(O)c12` [KAEMPFEROL], for which the IC50 in assay [1] worked out at 2.51 µg/mL (≈ 8.77 µM); in assay [2] it was 1.03 µg/mL (≈ 3.6 µM).
For the compound `CCCOC(=O)c1cc(O)c(O)c(O)c1` [PROPYL GALLATE], the 50% inhibitory concentration (IC50) turned out to be 0.94 µg/mL (≈ 4.43 µM) in assay [1] and 0.885 µg/mL (≈ 4.17 µM) in assay [2].
For `O=C(O)c1ccc(O)c(O)c1` [PROTOCATECHUIC ACID], the concentration for half-maximal inhibition (IC50) result in assay [1] is “ND(Insoluble)”; in assay [2], 2.47 µg/mL (≈ 16 µM).
